Legend:
Format in all cases: cell-based, human
MeWo melanoma cell line = test: SRB cell viability assay in MeWo cells; details: SRB, 72 h; for effect on cell viability: at least until 40 µM; for EC50: Homo sapiens, read-out: EC50 useful in diminishing cell viability
Method: (§1) In preliminary experiments, the evaluation of cell viability at different time after compound administration was carried out with sulforhodamine B (SRB) assay. Indeed, after 24-, 48-, and 72-h treatment, an evident time dependence in the inhibition of cell growth was registered (data not shown). Thus, to evaluate A375 and MeWo cell viability, we decided to perform further SRB experiments with each compound only after 72 h.
(§2) Human MeWo (HTB-65) and A375 (CRL-1619) melanoma cell lines as well as the normal human epidermal melanocyte (NHEM) (PCS-200-013) cell line (ATCC, Manassas, VA, USA) were cultured at 37 °C under 5% CO2 in a humidified atmosphere. Roswell Park Memorial Institute 1640 medium (RPMI, Gibco, Ref.21875, Thermo Scientific, Waltham, MA, USA) was used to culture MeWo cells, while Dulbecco’s Modified Eagle Medium (DMEM, Gibco, Ref. 61965, Thermo Scientific, Waltham, MA, USA) was used for A375 and NHEM cell lines. The culture media were supplemented with 10% fetal bovine serum (FBS, Gibco, Thermo Scientific, Waltham, MA, USA) plus 1% Antibiotic Antimycotic Solution (Gibco, Thermo Scientific). The MEK1 inhibitor U0126 (CAY-70970) and the PI3K inhibitor LY294002 (CAY-70920) were provided by Cayman Chemical, Ann Arbor, MI, USA.
(§3) Melanoma MeWo and A375 cells or NHEM were seeded in 96-well plates (5.0 × 10^3 cells/well for MeWo cells and 2.9 × 10^3 cells/well for A375 or NHEM). After 24-h culture, the cells were treated with different concentrations of compounds 1–7. After 72-h treatment, the cells were fixed by adding 25 µL/well of 50% (w/v) TCA directly into the culture medium. The plates were incubated at 4 °C for 1 h, washed four times with ddH2O, and dried at RT. Staining was performed by adding 50 µL/well of 0.04% (w/v) sulforhodamine B (SRB) sodium salt solution (Sigma-Aldrich, Milan, Italy). After 1-h incubation at RT, the plates were rinsed with 1% HAc and air-dried. SRB was solubilized in a 10 mM Tris-base solution pH 10.5 and Abs492 measured in the plate reader TECAN NanoQuant Infinite M200 Pro (Tecan Group Ltd., Männedorf, Switzerland). Six replicates for each condition/data point were performed.

A375 melanoma cell line = test: SRB cell viability assay in A375 cells; details: for effect on cell viability / EC50 / A375 cell viability, inhibitor administered alone: A375, SRB, 72 h; for effect on cell viability: at least until 40 µM; for EC50: Homo sapiens, A-375, read-out: half maximal effective concentration (EC50) able to reduce cell viability; for potentiation of the decrease of A375 cell viability induced by 20 µM salviolone or cryptotanshinone: 10 µM inhibitor added 2 h before the diterpene; for A375 cell viability, inhibitor administered alone: concentration-dependent
Method: as §1, §2, §3

pERK1/2 = test: Immunoblot of pERK1/2 in A375 cells; details: 10 µM U0126 with compound 4 or 7 at 20 µM
Method: (§4) A375 cells were seeded in 6 cm Petri dishes (190 300 cell/dish) and treated with different compounds at 10 or 20 μM. After 48- or 72-h treatment, the cells were scraped using warm 1× sample buffer (2% SDS, 10% glycerol, 50 mM Tris-HCl, 1.75% β-mercaptoethanol, and bromophenol blue) and boiled at 99 °C for 10 min. Total protein extracts were kept at −80 °C until use.
(§5) Protein extracts were analyzed with a 7.5 or 10% polyacrylamide SDS-PAGE and transferred to a polyvinylidene difluoride membrane (PVDF, Thermo Fisher Scientific, Waltham, MA, USA). The membranes were blocked at RT for 1 h with TBST buffer (10 mM Tris-HCl pH 7.5, 100 mM NaCl, 0.1% Tween20) containing 4% Milk (Formulat). Then, they were incubated on a shaker, overnight (ON) at 4 °C, with 5% BSA solution containing primary antibodies against p-Tyr705-STAT3 (#9145, 1:1000), pRb (#8516, 1:2000), pERK (#4370, 1:1000), pAkt (#4060, 1:2000), pSer15-P53 (#9286, 1:2000) (Cell Signaling Technology, Danvers, […], USA), Akt (GTX121937, 1:3000), ERK (GTX134452, 1:6000), Cyclin A2 (GTX-103042, 1:3000), p-Thr160Cdk2 (GTX-133862, 1:3000), p21 (GTX-629543, 1:3000) (Genetex, Alton Pkwj Irvine, CA, USA), p53 (Sc-263, 1:1000), STAT3 (Sc-482, 1:1000), and p-Ser727-STAT3 (Sc-136193, 1:1000) (Santa Cruz Biotechnology, Dallas, TX, USA). The membranes were washed three times with TBST buffer for 30 min and then incubated for 1 h with a horseradish-peroxidase-conjugated secondary antibody (anti-rabbit 1:6000, Genetex), (anti-mouse, 1:4000, Cell Signaling Technology, Danvers, […], USA). They were washed another three times for 30 min with TBST buffer. All protein extracts were normalized with a β-actin protein antibody (GTX-124214, 1:10,000; Genetex, Alton Pkwj Irvine, CA, USA). Immuno-detection was carried out with an ECL kit (GE-Healthcare, Little Chalfont, UK), and the chemiluminescence signals were detected with ChemiDoc (Bio-Rad, Hercules, CA, USA).

pAkt = test: Immunoblot of pAkt in A375 cells; details: 10 µM LY294002 with compound 7 or 4 at 20 µM
Method: as §4, §5

`CC1COc2c1c(=O)oc(=O)c1c3c(ccc21)C(C)(C)CCC3O` (stereo not drawn) [Compound 6, 1α-hydroxyanhydride-16R-cryptotanshinone] was tested, and the “effect on cell viability” value (MeWo melanoma cell line) was “ineffective” and the “effect on cell viability” value (A375 melanoma cell line) was “ineffective”.
Compound `Cc1coc2c1C(=O)C(=O)c1c-2ccc2c1CCCC2(C)C` [Compound 1, tanshinone IIA] has an EC50 (MeWo melanoma cell line) of 2 µM and an EC50 (A375 melanoma cell line) of about 1 µM.
In the case of `C[C@H]1COC2=C1C(=O)C(=O)c1c2ccc2c1[C@H](O)CCC2(C)C` [Compound 5, 1β-hydroxycryptotanshinone], the EC50 (MeWo melanoma cell line) is reported as 45 µM, the “activity rating for inhibition of melanoma cell viability” value (A375 melanoma cell line; A375 and MeWo, SRB) is reported as “poorly active” and the EC50 (A375 melanoma cell line) is reported as about 42 µM.
With `Cc1coc2c1C(=O)C(=O)c1c-2ccc2c1[C@@H](O)CCC2(C)C` [Compound 2, 1α-hydroxytanshinone] the “effect on cell viability” value (MeWo melanoma cell line) was “ineffective” and the “effect on cell viability” value (A375 melanoma cell line) was “ineffective”.
In the case of `N#CC(=C(/N)Sc1ccccc1N)/C(C#N)=C(/N)Sc1ccccc1N` [Compound U0126, reference compound], the “potentiation of the decrease of A375 cell viability induced by 20 µM salviolone or cryptotanshinone” value (A375 melanoma cell line) is reported as “did not potentiate”, the “A375 cell viability, inhibitor administered alone” value (A375 melanoma cell line) is reported as “inhibited” and the “pERK1/2 expression level on co-administration” value (pERK1/2) is reported as “strongly inhibited”.
With `O=c1cc(N2CCOCC2)oc2c(-c3ccccc3)cccc12` [LY294002, reference compound] the “potentiation of the decrease of A375 cell viability induced by 20 µM salviolone or cryptotanshinone” value (A375 melanoma cell line) was “did not potentiate”, the “A375 cell viability, inhibitor administered alone” value (A375 melanoma cell line) was “inhibited” and the “pAkt expression level on co-administration” value (pAkt) was “inhibition”.
`Cc1coc2c1C(=O)C(=O)c1c-2ccc2c1C(=O)CCC2(C)C` [Compound 3, 1-oxotanshinone] was tested, and the “effect on cell viability” value (MeWo melanoma cell line) was “ineffective” and the “effect on cell viability” value (A375 melanoma cell line) was “ineffective”.
